Counter-ions that a name gives are not always drawn.

In one data set the test system is HDMEC. Put plainly: Inhibition of cell proliferation, HDMEC. Type of data set: cell-based. The note with it: Homo sapiens.
The subject of data set [1] is C51 murine adenocarcinoma. Put plainly: Assessment of the tumor necrosis in vivo. The note with it: intravenous injection, 24 hours after treatment, female BALB/c mice. The source says: Mice are bred by IFFA-CREDO (Domaine des Oncins, 69210 L'Arbresle, France) from a race obtained by Jackson Laboratories, Bar Harbor, Me., USA, or by Charles River France (76410 St Aubin les Elbeuf, France) from a race obtained by Charles River, USA. The mice initially weigh more than 18 g at the start of the test. They have free access to food (UAR reference 113, Villemoisson, 91160 Epinay sur Orge, France) and water.
The tumors used are currently transplanted in our laboratories. All these tumors are at the Frederick Cancer Research Facility (Frederick, Md., USA) in the frozen tumor deposit of the National Cancer Institute (NCl) or at the American Type Culture Collection (ATCC, Rockville, Md., USA).
The tumor transplantation techniques, the chemotherapy and the data analysis are presented in detail (Corbett et al. 1982a; Corbett et al., 1982b).
To summarize, the animals required for an experiment are assembled and implanted bilaterally on day 0 (zero).
The growth of the solid tumors develops freely up to the desired size. The mice are then treated by intravenous injection of a test compound in solution.
The sampling of tumors is usually (but not necessarily) carried out 24 hours after the treatment.
The mice are killed by […]. The implanted tumors, along with the skin covering them and the neighboring tissues, are collected and stored in 10% formaldehyde (v/v) (Carlo Erba, Val de Reuil, France).
The samples are then treated, sectioned, stained with hematoxylin, eosin and saffron yellow, and are then examined […]. The tumor necrosis (necrosis±degeneration) is assessed microscopically using a scale of magnitude from 0 to 5:
The values assigned to the tumor necrosis 24 hours after administration of the test compound correspond solely to a necrosis dependent on the product which may be differentiated with certainty from any existing necrosis arising from the experiment.
The necrosis due to the experiment was assessed on an untreated control.
The tumor model is a C51 murine adenocarcinoma. This colon tumor is a grade III mucous colon […]. It is maintained by serial subcutaneous passages every 18 days in female BALB/c mice. The experiments were carried out on female BALB/c mice.

The next data set concerns HDMEC cells. Kind of data set: Detachment effect on HDMEC endothelial cells. It is filed as cell-based, Human. The note with it: 1 μM, treatment for two hours.
Description: A test to determine the detachment of endothelial cells was established in order to select the products on the basis of their “in vitro” activity. This test for determining the endothelial cell detachment is characterized in that the endothelial cells, inoculated in plates which are coated at the bottom with a binder, e.g., chosen from gelatin, fibronectin or vitronectin, after culturing, are supplemented with a medium containing the test compound, and the cells are then labeled with a fluorescent substance, the cells which become detached are removed by washing and the fluorescence of the remaining cells is counted in a fluorimeter.
This test consists in measuring the detachment of endothelial cells cultured on substrates based on a binder, e.g., chosen from fibronectin, vitronectin and gelatin. One day after inoculating the cells in plates containing 96 wells, for example, the culture medium is replaced with a medium containing the test compound in the absence of serum. The same preparation is prepared six times at three different concentrations ([…]) and the control without addition of antivascular product is prepared six times. After treatment for two hours with the test substance, the cells are labeled with calcein-AM (1.6 μg/ml) in a culture medium supplemented with 0.1% BSA. The cells which become detached are removed by washing with the culture medium containing 0.1% bovine serum albumin; 100 μl of medium are added to each well. The fluorescence of the remaining cells is counted in a fluorimeter. The data obtained are expressed relative to the control (untreated cells).
(§1) The assessment of the detachment of the endothelial cells in vitro is determined in the following way. HDMEC cells (Human Dermal Microvascular Endothelial Cells, Promocell, c-122102) are cultured in an ECGM-MV medium containing 5% fetal calf serum, growth factors (EGF 10 ng/ml, hydrocortisone 1 μg/ml, 0.4% growth supplement with heparin) and antibiotics (amphotericin 50 ng/ml, gentamicin 50 μg/ml). For the detachment test, the HDMECs are inoculated at a rate of 5 000 cells in clear-bottomed 96-well plates (Costar) precoated with fibronectin (10 μg/ml) or vitronectin (1 μg/ml) or gelatin. Twenty-four hours later, the culture medium is replaced with 0.1% BSA ECGM-MV medium containing the indicated products. The test concentrations are 0.1-0.3 and 1 μM for each product. After treatment for two hours, the cells are labeled for 1 hour with calcein (1.6 μg/ml, Molecular Probes) in 0.1% BSA ECGM-MV medium. The detached cells are then removed by washing with 0.1% BSA ECGM-MV medium; 100 μl of medium are added to each well. The fluorescence of the cells which remain attached to the substratum of the well is counted using a fluorimeter, Spectrafluor Plus (Tecan, excitation at 485 nm, and emission at 535 nm). The data are the average of six different samples and are expressed as a percentage of the control (untreated cells).
A cell detachment effect of greater than or equal to 15% is considered as significant.
as §1, with “(amphotericine” for “(amphotericin”, “The detached cells are then removed by washing with 0.1% BSA ECGM-MV medium; 100 μl of medium are added to each well. The fluorescence of the cells which remain attached to the substratum of the well is counted using a fluorimeter, Spectrafluor Plus (Tecan, excitation at 485 nm, and emission at 535 nm). The data are the average of six different samples and are expressed as a percentage of the control (untreated cells).” left out

The target of another data set is T1, Tubulin (Sus scrofa, UniProt P02550+P02554).
T1 construct: Tubulin is purified from pig brains according to the published methods; from tissue; host or cells: pig brain
Kind of data set: Assessment of the inhibition of tubulin polymerization (turbidimetry). Type of data set: biochemical, pig. Particulars: tubulin 10 μM, turbidity at 350 nm, 37° C. The protocol:
Tubulin is purified from pig brains according to the published methods (Shelanski et al., 1973, Proc. Natl, Acad. Sci. USA, 70, 765-768. Weingarten et al., 1975, Proc. Natl, Acad. Sci. USA, 72, 1858-1862). Briefly, the brains are ground and centrifuged in an extraction buffer. The tubulin, contained in the extract supernatant, is subjected to two successive cycles of polymerization at 37° C. and depolymerization at 4° C., before being separated from the MAPs (Microtubule Associated Proteins) by chromatography on a phosphocellulose P11 column (Whatman). The tubulin thus isolated is more than 95% pure. It is stored in a buffer known as RB/2 30% glycerol, the composition of which is MES-NaOH [2-(N-morpholino)ethanesulfonic acid] 50 mM, pH 6.8; MgCl2 0.25 mM; EGTA 0.5 mM; 30% glycerol (v/v), GTP (guanosine 5′-triphosphate) 0.2 mM.
The polymerization of the tubulin into microtubules is monitored by turbidimetry as follows; the tubulin is adjusted to a concentration of 10 μM (1 mg/ml) in the RB/2 30% glycerol buffer, to which is added 1 mM GTP and 6 mM MgCl2. The polymerization is initiated by increasing the temperature from 6° C. to 37° C. in a cuvette with a 1 cm optical pathlength, placed in a Uvikon 931 spectrophotometer (Kontron) equipped with a thermostatically-regulated cuvette holder. The increase in the turbidity of the solution is monitored at 350 nm.
The products are dissolved at 10 mM in DMSO and added at variable concentrations (0.5 to 10 μM) to the tubulin solution before polymerization. The IC50 value is defined as the concentration of product which inhibits 50% of the rate of polymerization. A product whose IC50 value is less than or equal to 3 μM is considered as very active.

T1 sequence (P02550 whole entry): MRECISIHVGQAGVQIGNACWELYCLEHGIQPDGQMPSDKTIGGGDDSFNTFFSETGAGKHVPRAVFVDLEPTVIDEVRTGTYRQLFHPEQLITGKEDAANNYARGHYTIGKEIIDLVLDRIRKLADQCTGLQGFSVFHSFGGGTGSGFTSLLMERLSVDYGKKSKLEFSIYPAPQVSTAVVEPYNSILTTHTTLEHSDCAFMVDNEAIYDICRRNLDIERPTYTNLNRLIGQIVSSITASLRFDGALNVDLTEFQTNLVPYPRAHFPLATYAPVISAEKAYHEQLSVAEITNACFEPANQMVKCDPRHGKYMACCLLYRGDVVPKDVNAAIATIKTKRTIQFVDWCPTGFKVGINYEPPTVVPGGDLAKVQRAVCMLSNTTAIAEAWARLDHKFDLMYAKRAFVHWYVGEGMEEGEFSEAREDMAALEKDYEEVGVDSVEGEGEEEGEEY
T1 sequence (P02554 whole entry): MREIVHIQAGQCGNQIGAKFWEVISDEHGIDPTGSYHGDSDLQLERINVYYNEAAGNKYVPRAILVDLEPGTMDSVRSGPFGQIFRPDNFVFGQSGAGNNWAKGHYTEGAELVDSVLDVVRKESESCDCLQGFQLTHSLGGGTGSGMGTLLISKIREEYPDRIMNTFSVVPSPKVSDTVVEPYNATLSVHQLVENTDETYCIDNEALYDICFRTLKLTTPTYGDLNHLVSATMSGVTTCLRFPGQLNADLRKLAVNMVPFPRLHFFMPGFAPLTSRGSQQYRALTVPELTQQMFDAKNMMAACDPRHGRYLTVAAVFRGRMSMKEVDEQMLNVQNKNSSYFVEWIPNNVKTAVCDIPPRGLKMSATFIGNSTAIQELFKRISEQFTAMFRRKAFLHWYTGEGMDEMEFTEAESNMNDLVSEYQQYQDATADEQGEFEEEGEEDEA

In the case of `COc1ccc(C=C(C)C(=O)c2cc(OC)c(OC)c(OC)c2)cc1NC(=O)[C@@H](N)CCCCN.Cl.Cl` [Example 10, (S)-2,6-Diaminohexanoic acid {2-methoxy-5-[2-methyl-3-oxo-3-(3,4,5-trimethoxyphenyl)propenyl]-phenyl}amide dihydrochloride], the IC50 (usually the concentration that inhibits the measured activity by half) in the data set on HDMEC is 207 to 225 nM. In data set [1] (25 mg/kg), the “C51 colon tumor necrosis in vivo (grade)” value is “Grade 5 at 25 (5=large, >75%)”. Moreover, in the data set on HDMEC cells, the “Percentage of detachment of HDMEC cells induced with the compound at a concentration of 1 μM” value (shortened to “Percentage”) is 36%.

With `COc1cc(C(=O)/C(C)=C/c2ccc3[nH]ccc3c2)cc2c1OCO2` [Example 17, E-2-Methyl-3-(1-H-indol-5-yl)-1-(3-methoxy-4,5-methylenedioxyphenyl)propenone], the melting point (usually the temperature of the solid-liquid transition) is 140 °C. On Tubulin, the concentration for half-maximal inhibition (IC50) worked out at 800 nM.

As for `COc1ccc(/C=C(\C)C(=O)c2cc(OC)c(OC)c(OC)c2)cc1NC(=O)CN` [Example 14, Aminoacetic acid {2-methoxy-5-[2-methyl-3-oxo-3-(3,4,5-trimethoxyphenyl)propenyl]phenyl}amide hydrochloride], the IC50 in the data set on HDMEC was 10 nM; on Tubulin, 25000 nM. The “C51 colon tumor necrosis in vivo (grade)” value in data set [1] (25 mg/kg) is “Grade 5 at 25 (5=large, >75%)”. For the same compound, the “Percentage” value in the data set with HDMEC cells was found to be 36%.

Compound `COc1cc(C(=O)/C(C)=C/c2ccc3c(ccn3CCN(C)C)c2)cc2c1OCO2` [Example 18, E-2-Methyl-3-[1-(2-dimethylaminoethyl)-1-H-indol-5-yl]-1-(3-methoxy-4,5-methylenedioxyphenyl)propenone] registered a melting point of 118 °C. Moreover, at Tubulin, inhibition was half-maximal at 2000 nM (IC50).

In the case of `COc1cc(C(=O)/C(C)=C/c2ccc3c(c2)CCN3C)cc(OC)c1OC` [Example 6, E-2-Methyl-3-(1-methyl-2,3-dihydro-1-H-indol-5-yl)-1-(3,4,5-trimethoxyphenyl)propenone], the results for the half-inhibitory concentration (IC50) in the data set on HDMEC and against Tubulin were 17 to 20 nM and 800 nM, respectively. Besides, the “C51 colon tumor necrosis in vivo (grade)” value in data set [1] (50 mg/kg) is “Grade 5 at 50 (5=large, >75%)”. The “Percentage” value in the data set with HDMEC cells is 28%.
